# Experiments:
# Assay type in all cases: cell-based
# [1] = test system: melanin-producing enzymes (TRP1, TRP2) in normal human melanocytes; assay: Increase in protein expression of melanin-producing enzymes (TRP1, TRP2) by C. acnes; conditions: 10^7 CFU/ml live C. acnes, 1 nM to 100 nM, 2 days, FIGS. 11 and 12
# Procedure: Cutibacterium acnes (C. acnes, ATCC 6919) are inoculated in a BHI medium and cultured at 37° C. under anaerobic conditions for 72 hours to 96 hours, and then, the medium is collected. The collected medium is centrifuged (4° C., 10 minutes at 5,000×g), precipitating the bacteria. The precipitated bacteria are twice washed with phosphate-buffered saline (PBS) and treated up to a final concentration of 10^10 CFU/ml, preparing a live C. acnes stock, and the live C. acnes stock is cryopreserved at −80° C. Normal human melanocytes are placed on 6-well plates, and the next day, the medium is changed to a PMA-free melanocyte medium. Herein, 10^4, 10^5, 10^6, and 10^7 CFU/ml of live C. acnes are treated. After culturing for 2 days, the cells broken by using a lysis buffer in each well to separate proteins. The separated proteins are measured with respect to relative protein expression levels by using a specific antibody for TRP1 (tyrosinase related protein 1) and TRP2 (tyrosinase related protein 2), which are melanin-producing enzymes.
# Normal human melanocytes are placed on 6-well plates, and the next day, the medium is changed to a PMA-free melanocyte medium. […] The separated proteins are measured with respect to relative protein expression levels by using a specific antibody for TRP1 (tyrosinase related protein 1) and TRP2 (tyrosinase related protein 2), which are melanin-producing enzymes.
# [2] = test system: melanin-producing enzyme (tyrosinase, TRP2) in normal human melanocytes; assay: Increase in protein expression of melanin-producing enzyme (tyrosinase, TRP2) by pigmentation inducer (α-MSH); conditions: 500 nM α-MSH, 0.001-100 nM, 4 days, FIGS. 4 to 6
# Procedure: (§1) Normal human melanocytes are placed on a 6-well plate, and the next day, the medium is changed to a PMA-free melanocyte medium. At this time, they are treated with each composition including the compound represented by Chemical Formula 1-1 (Cayman chemical) in an amount of 0 nM, 0.001 nM, 0.01 nM, 0.1 nM, 1 nM, 10 nM, and 100 nM, respectively (based on the total amount of the composition) along with 500 nM pigmentation inducer (α-MSH). After culturing for 4 days, the cells are broken using a lysis buffer in each well and then the proteins are separated. Subsequently, the separated proteins are measured with respect to relative protein expression levels by using a specific antibody for TRP2 (tyrosinase related protein 2), which is a melanin-producing enzyme.
# [3] = test system: melanin-producing enzyme (tyrosinase, TRP2) in normal human melanocytes; assay: Increase in protein expression of melanin-producing enzyme (tyrosinase, TRP2) by pigmentation inducer (IBMX); conditions: 100 μM IBMX, 0.001-100 nM, 4 days, FIGS. 7 to 9
# Procedure: as §1, with “100 μM” for “500 nM”, “(IBMX).” for “(α-MSH).”
# [4] = test system: melanin-producing enzymes (tyrosinase, TRP2) in normal human melanocytes; assay: Protein expression of melanin-producing enzymes (tyrosinase, TRP2) in normal human melanocytes without inducer; conditions: no inducer, 0.001-100 nM, 4 days
# Procedure: as §1, with “to a […] melanocyte medium.” for “to a PMA-free melanocyte medium.”, “of the composition). After culturing” for “of the composition) along with 500 nM pigmentation inducer (α-MSH). After culturing”, “antibody for tyrosinase which is a melanin-producing enzyme from, TRP2 (tyrosinase” for “antibody for TRP2 (tyrosinase”, “related protein 2).” for “related protein 2), which is a melanin-producing enzyme.”
structure (smiles),measurement,setting,value
CC/C=C\C[C@H](O)/C=C/C=C\C/C=C\C=C\[C@@H](O)C/C=C\CCC(=O)O [Chemical Formula 1-1],"increase in protein expression of the melanin-producing enzyme (TRP1, TRP2) by C. acnes",[1],effectively inhibited
same,"increase in protein expression of the melanin-producing enzyme (tyrosinase, TRP2) by α-MSH",[2],effectively inhibited
same,"increase in protein expression of the melanin-producing enzyme (tyrosinase, TRP2) by IBMX",[3],effectively inhibited
same,"increase in the protein expression of the melanin-producing enzyme (tyrosinase, TRP2)","[4]; antibody detection vs GAPDH, FIGS. 1 to 3",effectively inhibited
same,increase in protein expression of the tyrosinase,[4]; concentration dependence,effectively inhibited depending on a concentration
